Measurements: US12209252B2, “Transduction buffer” (Koninklijke Nederlandse Akademie van Wetenschappen, priority 2015, dated 2025)

How the values were obtained:
[1] = system: KBM7 cells carrying an out-of-frame tdTomato reporter; assay: Effect of carbohydrate supplements on Cas9/sgRNA transduction (tdTomato reporter); type: cell-based; details: carbohydrate 0.8% w/v, 40 minutes, 327 mM NaCl, 200 mM GABA, read two days after
Description: (§1) KBM7 cells carrying an out-of-frame tdTomato reporter were transduced for 40 minutes with recombinant Cas9 protein and sgRNA targeting the out-of-frame region in the tdTomato reporter. Transductions were carried out in 1× iTOP transduction buffer, supplemented with 327 mM NaCl and 200 mM GABA. Indicated carbohydrates were added at 0.8% w/v final concentration. Two days after transduction, tdTomato fluorescence was determined by flow cytometry analysis.
as §1, with “The effect of various carbohydrates on transduction efficiency was tested in the iTOP buffer. KBM7” for “KBM7”, “carbohydrates (sorbitol, lactulose, sucrose, trehalose and myo-inositol)” for “carbohydrates”, “analysis. Higher levels of tdTomato fluorescence were indicative of greater transduction efficiency.” for “analysis.”

[2] = 700 mOsm/Kg, non-salt compound alone; previously tested (WO2015/028969); cited from earlier work
[3] = system: sodium-hydrogen antiporter (Nhe) proteins; assay: Inhibition of protein transduction by Na+/H+ exchange inhibitors; type: cell-based
Excerpt: Without wishing to be bound by theory, the inventors hypothesise that activation of such Nhe transporters leads to activation of the macropinocytosis pathway, which is the first step in the transduction process. Thus, in some embodiments, the salt is any salt able to bind to and/or activate a sodium/hydrogen (Na+/H+) transporter, such as an Nhe transporter, for example an Nhe1 transporter. Nhe1 is a ubiquitous membrane-bound enzyme involved in volume- and pH-regulation of vertebrate cells.

[4] = system: MEFs; assay: BrdU incorporation 24 hrs after beta-lactamase transduction; type: cell-based, mouse; details: see FIGS. 6A-6D
Description: Third column: Relative β-lactamase protein transduction activity; Fourth column: Relative BrdU incorporation 24 hrs after β-lactamase transduction. MEFs were transduced for 3 hours with 1 μM β-lactamase protein at a NaCl adjusted osmolality of 700 mOsm/Kg in transduction buffer containing 30 mM of Glycerol and 15 mM of Glycine and 25 mM of the indicated transduction compounds. β-lactamase incorporation of the reference compound (NDSB201, #01) was set at 100%. Open circles indicate relative BrdU incorporation by the transduced cells. BrdU incorporation of untransduced cells was set at 100% and BrdU incorporation of mitomycin C-treated cells was set at 0%.

Compound | transduction efficiency (tdTomato fluorescence, in words) [1] | induction of protein transduction [2] | also measured
OC[C@H]1O[C@H](O[C@H]2O[C@H](CO)[C@@H](O)[C@H](O)[C@H]2O)[C@H](O)[C@@H](O)[C@@H]1O [trehalose] | greatest improvement | – | –
OC[C@@H](O)[C@@H](O)[C@H](O)[C@H](O)CO [mannitol] | – | failed to induce protein transduction | –
CCN(c1nc(N)c(C(=O)NC(=N)N)nc1Cl)C(C)C [EIPA] | – | – | inhibition of protein transduction [3]: strongly inhibited
O[C@H]1[C@H](O)[C@@H](O)[C@H](O)[C@@H](O)[C@H]1O [myo-inositol] | closely followed | – | –
OC[C@H]1O[C@@H](O[C@@H]2[C@@H](CO)OC(O)(CO)[C@H]2O)[C@H](O)[C@@H](O)[C@H]1O (mixture of isomers) [lactulose] | closely followed | failed to induce protein transduction | –
OC[C@H]1O[C@@](CO)(O[C@H]2O[C@H](CO)[C@@H](O)[C@H](O)[C@H]2O)[C@@H](O)[C@@H]1O [sucrose] | improve transduction efficiency | failed to induce protein transduction | –
OC[C@@H](O)[C@@H](O)[C@H](O)[C@@H](O)CO [sorbitol] | greatest improvement | failed to induce protein transduction | –
CN(C)c1nc(N)c(C(=O)N=C(N)N)nc1Cl [DMA] | – | – | inhibition of protein transduction [3]: strongly inhibited
NCCCC(=O)O [#20] | – | – | cell viability / proliferation / survival (in words) [4]: particularly good cell survival rates
